Experiments:
HBV [1] = conditions: cited from earlier work
HBV [2] = assay: Treatment of HBV-infected patients with Compound (I), alone or in combination; format: in vivo, human
Excerpt: (§1) In this invention, methods of the entire treatment comprising Compound (I) monotherapy or Compound (I) in combination with other anti-HBV drug(s) for 24-120 weeks were developed.
Furthermore, treatment method of Compound (I) in combination with other anti-HBV drugs results in significant hepatitis B surface antigen (HBsAg) decline or loss. […] However, the method of treatment of this invention with Compound (I) can also induce robust HBV DNA and HBV RNA decline in such patients.

[3] = Safety and tolerability of Compound (I) in chronic hepatitis B patients; format: in vivo, human
Excerpt: as §1

[4] = patients under the treatment methods of the invention

Compound: CCCCOc1nc(N)c2c(n1)N(Cc1cccc(CN3CCCC3)c1)CC(=O)N2 [Vesatolimod]
- HBsAg decline (HBV [1]; weekly dosing for 4, 8, 12 weeks, virally suppressed patients with chronic hepatitis B): did not show HBsAg decline
- change in HBsAg after treatment (HBV [1]; weekly dosing for 12 weeks in combination with tenofovir disoproxil fumarate, viremic CHB patients not on oral antiviral treatment): did not demonstrate any meaningful change in HBsAg

Compound: CC[C@H](OC(C)=O)[C@@H]1C[C@@H](O)[C@H](n2c(=O)sc3cnc(N)nc32)O1 [Compound (I), (1S)-1-[(2S,4R,5R)-5-(5-amino-2-oxo-thiazolo[4,5-d]pyrimidin-3-yl)-4-hydroxy-tetrahydrofuran-2-yl]propyl] acetate]
- hepatitis B surface antigen (HBsAg) decline or loss (HBV [2]; Compound (I) in combination with other anti-HBV drugs): significant
- HBV DNA decline (HBV [2]; [4]): robust
- HBV RNA decline (HBV [2]; [4]): robust
- safety and tolerability [3]: safe and well tolerated
